# Entries after “also recorded” stand apart in the source; their conditions may differ.
# Tests used:
# serum testosterone = test: Serum testosterone (RIA) in SCID mice; type: in vivo, male SCID mice; conditions: Table 2, first experiment, 28 days of treatment, 50 mg kg-1 day-1; control 1.043
# From the text: (§1) Prostate cancer is the most common malignancy and the second leading cause of cancer-related deaths among men in the US and the UK (Shibata et al, 1998). […] Steroidal 17-hydroxylase/C17,20 -lyase (P450c17) (EC 1.14.99.0) was selected as the target enzyme for inhibition, as this is a key regulatory enzyme of androgen synthesis. P450c17 catal- yses two sequential reactions in the steroid biosynthetic pathway and converts pregnenolone and progesterone to the C-19 andro- gens, dehydroepiandrosterone and androstenedione respectively. This enzyme has an identical amino acid sequence in testicular and adrenal tissues (Chung et al, 1987). […] In order to evaluate the effectiveness of these inhibitors we developed a multi-step system, which utilized the LNCaP human prostate cancer cell line. LNCaP cells remain the only androgen receptor (AR)-positive prostate cancer cell line, that can be readily grown in tissue culture (Horoszewicz et al, 1983). These cells respond to androgens with increased cell proliferation and elevated expression of prostate specific antigen (PSA) (Berns et al, 1993). LNCaP cells at early passages are not only androgen-responsive, but also androgen- dependent (Pousette et al, 1997). This is similar to the situation in most tumours of prostatic cancer patients, which are initially highly responsive and dependent on androgens. […] Therefore, we employed LNCaP cells as a model for evaluating the effectiveness of our new inhibitors of androgen synthesis. In this study the compounds selected for evaluation were two groups of azolyl steroids. […] Here we report on the application of LNCaP-CYP17-transfected cells for determining the inhibitory potencies of the new compounds against the P450c17 enzyme. […] We designed and evaluated two groups of azolyl steroids: 5-non-competitive inhibitors (5NCIs), VN/63-1, VN/85-1, VN/87-1 and their corresponding 4 derivatives (4NCIs), VN/107-1, VN/108-1 and VN/109-1. The human P450c17 gene was transfected into LNCaP human prostate cancer cells, and the resultant LNCaP- CYP17 cells were utilized to evaluate the inhibitory potency of the new azolyl steroids. […] We further evaluated our inhibitors in male severe combined immuno- deficient mice bearing LNCaP tumour xenografts. […] We also utilized wild-type LNCaP prostatic carcinoma cells for evaluating the direct effects of new azolyl steroids on proliferation of these cells in vitro and in vivo. MATERIALS AND METHODS Materials The human prostate cancer cell line LNCaP was obtained from the American Type Culture Collection (Rockville, MD, USA). RPMI- 1640 medium, trypsin-EDTA (0.25%/0.02%), penicillin/strepto- mycin (P/S), geniticin (G418), and LipofectAMINE were from Gibco-BRL (Grand Island, NY, USA). Fetal bovine serum (FBS) was obtained from Summit Biotechnology Inc. (Fort Collins, CO, USA) and steroid-free FBS was prepared as described previously (Klus et al, 1996). Phenol red free IMEM and trypsin-versine were purchased from Biofluids Inc. (Rockville, MD, USA). Chloroform and acetonitrile were purchased from JT Baker, Inc (Phillipsburg, NJ, USA). Hydroxypropyl cellulose (HPC) was purchased from Sigma Chemical Co. (St Louis, MO, USA). The PSA enzyme- linked immunusorbent assay (ELISA) kit was from DSL Inc. (Webster, TX, USA). Matrigel was generously supplied by Dr Hynda Kleinman (NIH, Bethesda, MD, USA). Inhibitors of androgen synthesis: VN/63-1, VN/85-1, VN/87-1, VN/107-1, VN/108-1 and VN/109-1 were synthesized in our labo- ratory as previously described (Njar et al, 1998). […] Metribolone [17-methyl-3 H]-R1881 ([3 H]-R1881: specific activity 86 Ci mmol-1 ) was purchased from Dupont NEN (Boston, MA, USA).
# LNCaP cells [1] = test: LNCaP cell growth in steroid-free medium; type: cell-based, human; conditions: steroid-free medium
# From the text: Prostate cancer is the most common malignancy and the second leading cause of cancer-related deaths among men in the US and the UK (Shibata et al, 1998). […] Steroidal 17-hydroxylase/C17,20 -lyase (P450c17) (EC 1.14.99.0) was selected as the target enzyme for inhibition, as this is a key regulatory enzyme of androgen synthesis. P450c17 catal- yses two sequential reactions in the steroid biosynthetic pathway and converts pregnenolone and progesterone to the C-19 andro- gens, dehydroepiandrosterone and androstenedione respectively. This enzyme has an identical amino acid sequence in testicular and adrenal tissues (Chung et al, 1987). […] In order to evaluate the effectiveness of these inhibitors we developed a multi-step system, which utilized the LNCaP human prostate cancer cell line. LNCaP cells remain the only androgen receptor (AR)-positive prostate cancer cell line, that can be readily grown in tissue culture (Horoszewicz et al, 1983). These cells respond to androgens with increased cell proliferation and elevated expression of prostate specific antigen (PSA) (Berns et al, 1993). LNCaP cells at early passages are not only androgen-responsive, but also androgen- dependent (Pousette et al, 1997). This is similar to the situation in most tumours of prostatic cancer patients, which are initially highly responsive and dependent on androgens. […] Therefore, we employed LNCaP cells as a model for evaluating the effectiveness of our new inhibitors of androgen synthesis. In this study the compounds selected for evaluation were two groups of azolyl steroids. […] Here we report on the application of LNCaP-CYP17-transfected cells for determining the inhibitory potencies of the new compounds against the P450c17 enzyme. […] We designed and evaluated two groups of azolyl steroids: 5-non-competitive inhibitors (5NCIs), VN/63-1, VN/85-1, VN/87-1 and their corresponding 4 derivatives (4NCIs), VN/107-1, VN/108-1 and VN/109-1. The human P450c17 gene was transfected into LNCaP human prostate cancer cells, and the resultant LNCaP- CYP17 cells were utilized to evaluate the inhibitory potency of the new azolyl steroids. […] We further evaluated our inhibitors in male severe combined immuno- deficient mice bearing LNCaP tumour xenografts. […] We also utilized wild-type LNCaP prostatic carcinoma cells for evaluating the direct effects of new azolyl steroids on proliferation of these cells in vitro and in vivo. MATERIALS AND METHODS Materials The human prostate cancer cell line LNCaP was obtained from the American Type Culture Collection (Rockville, MD, USA). RPMI- 1640 medium, trypsin-EDTA (0.25%/0.02%), penicillin/strepto- mycin (P/S), geniticin (G418), and LipofectAMINE were from Gibco-BRL (Grand Island, NY, USA). […]
# serum PSA = test: Serum PSA (ELISA) in LNCaP tumour-bearing SCID mice; type: in vivo, male SCID mice; conditions: first experiment, 50 mg kg-1 day-1, 28 days
# From the text: Prostate cancer is the most common malignancy and the second leading cause of cancer-related deaths among men in the US and the UK (Shibata et al, 1998). […] Steroidal 17-hydroxylase/C17,20 -lyase (P450c17) (EC 1.14.99.0) was selected as the target enzyme for inhibition, as this is a key regulatory enzyme of androgen synthesis. P450c17 catal- yses two sequential reactions in the steroid biosynthetic pathway and converts pregnenolone and progesterone to the C-19 andro- gens, dehydroepiandrosterone and androstenedione respectively. This enzyme has an identical amino acid sequence in testicular and adrenal tissues (Chung et al, 1987). […] In order to evaluate the effectiveness of these inhibitors we developed a multi-step system, which utilized the LNCaP human prostate cancer cell line. LNCaP cells remain the only androgen receptor (AR)-positive prostate cancer cell line, that can be readily grown in tissue culture (Horoszewicz et al, 1983). These cells respond to androgens with increased cell proliferation and elevated expression of prostate specific antigen (PSA) (Berns et al, 1993). LNCaP cells at early passages are not only androgen-responsive, but also androgen- dependent (Pousette et al, 1997). This is similar to the situation in most tumours of prostatic cancer patients, which are initially highly responsive and dependent on androgens. […] Therefore, we employed LNCaP cells as a model for evaluating the effectiveness of our new inhibitors of androgen synthesis. In this study the compounds selected for evaluation were two groups of azolyl steroids. […] Here we report on the application of LNCaP-CYP17-transfected cells for determining the inhibitory potencies of the new compounds against the P450c17 enzyme. […] We designed and evaluated two groups of azolyl steroids: 5-non-competitive inhibitors (5NCIs), VN/63-1, VN/85-1, VN/87-1 and their corresponding 4 derivatives (4NCIs), VN/107-1, VN/108-1 and VN/109-1. The human P450c17 gene was transfected into LNCaP human prostate cancer cells, and the resultant LNCaP- CYP17 cells were utilized to evaluate the inhibitory potency of the new azolyl steroids. […] We further evaluated our inhibitors in male severe combined immuno- deficient mice bearing LNCaP tumour xenografts. […] We also utilized wild-type LNCaP prostatic carcinoma cells for evaluating the direct effects of new azolyl steroids on proliferation of these cells in vitro and in vivo. MATERIALS AND METHODS Materials The human prostate cancer cell line LNCaP was obtained from the American Type Culture Collection (Rockville, MD, USA). RPMI- 1640 medium, trypsin-EDTA (0.25%/0.02%), penicillin/strepto- mycin (P/S), geniticin (G418), and LipofectAMINE were from Gibco-BRL (Grand Island, NY, USA). Fetal bovine serum (FBS) was obtained from Summit Biotechnology Inc. (Fort Collins, CO, USA) and steroid-free FBS was prepared as described previously (Klus et al, 1996). Phenol red free IMEM and trypsin-versine were purchased from Biofluids Inc. (Rockville, MD, USA). Chloroform and acetonitrile were purchased from JT Baker, Inc (Phillipsburg, NJ, USA). Hydroxypropyl cellulose (HPC) was purchased from Sigma Chemical Co. (St Louis, MO, USA). The PSA enzyme- linked immunusorbent assay (ELISA) kit was from DSL Inc. (Webster, TX, USA). Matrigel was generously supplied by Dr Hynda Kleinman (NIH, Bethesda, MD, USA). […]
# [2] = target: T1, human 17α-hydroxylase/C17,20-lyase (P450c17) expressed in LNCaP-CYP17 cells (Homo sapiens, UniProt P05093); test: [3H]-acetic acid releasing assay (AARA) with LNCaP-CYP17 cells; type: cell-based; conditions: LNCaP-CYP17 cells, 7 μM [21-3H]17-OHP5, 16 h; mean ± s.e.m., three experiments
# T1 sequence (P05093 9-508 limits assumed): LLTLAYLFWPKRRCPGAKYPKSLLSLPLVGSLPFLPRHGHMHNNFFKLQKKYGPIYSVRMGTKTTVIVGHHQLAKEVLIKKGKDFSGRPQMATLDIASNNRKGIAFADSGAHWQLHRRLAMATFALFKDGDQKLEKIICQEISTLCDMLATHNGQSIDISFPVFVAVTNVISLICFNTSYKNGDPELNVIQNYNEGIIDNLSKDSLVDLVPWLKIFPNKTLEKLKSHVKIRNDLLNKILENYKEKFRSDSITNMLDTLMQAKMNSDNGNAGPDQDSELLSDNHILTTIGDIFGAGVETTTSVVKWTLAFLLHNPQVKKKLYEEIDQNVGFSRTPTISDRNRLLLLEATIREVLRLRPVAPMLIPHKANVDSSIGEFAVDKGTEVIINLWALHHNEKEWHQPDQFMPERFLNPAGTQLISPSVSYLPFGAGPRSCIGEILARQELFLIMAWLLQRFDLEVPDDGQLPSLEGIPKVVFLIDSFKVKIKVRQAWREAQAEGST
# LNCaP cells [3] = test: DHT-stimulated wild-type LNCaP cell growth; type: cell-based, human; conditions: 0.03 nM DHT, 9 days
# From the text: as §1
# LNCaP androgen receptor = target: T2, LNCaP androgen receptor (Homo sapiens, UniProt P10275, T878A); test: Androgen receptor binding assay ([3H]R1881 displacement in LNCaP cells); conditions: from growth and binding results
# T2 construct: endogenous in cells; host or cells: LNCaP (wild-type, untransfected)
# From the text: Prostate cancer is the most common malignancy and the second leading cause of cancer-related deaths among men in the US and the UK (Shibata et al, 1998). […] Steroidal 17-hydroxylase/C17,20 -lyase (P450c17) (EC 1.14.99.0) was selected as the target enzyme for inhibition, as this is a key regulatory enzyme of androgen synthesis. P450c17 catal- yses two sequential reactions in the steroid biosynthetic pathway and converts pregnenolone and progesterone to the C-19 andro- gens, dehydroepiandrosterone and androstenedione respectively. This enzyme has an identical amino acid sequence in testicular and adrenal tissues (Chung et al, 1987). […] In order to evaluate the effectiveness of these inhibitors we developed a multi-step system, which utilized the LNCaP human prostate cancer cell line. LNCaP cells remain the only androgen receptor (AR)-positive prostate cancer cell line, that can be readily grown in tissue culture (Horoszewicz et al, 1983). […] We designed and evaluated two groups of azolyl steroids: 5-non-competitive inhibitors (5NCIs), VN/63-1, VN/85-1, VN/87-1 and their corresponding 4 derivatives (4NCIs), VN/107-1, VN/108-1 and VN/109-1. […] We further evaluated our inhibitors in male severe combined immuno- deficient mice bearing LNCaP tumour xenografts. […]
# serum DHT = test: Serum DHT (RIA) in SCID mice; type: in vivo, male SCID mice; conditions: Table 2, first experiment, 28 days of treatment, 50 mg kg-1 day-1; control 243.8
# From the text: as §1
# LNCaP tumour xenografts = test: LNCaP tumour xenograft growth in male SCID mice; type: in vivo; conditions: first experiment
# From the text: as §1
# LNCaP cells [4] = test: Testosterone-stimulated wild-type LNCaP cell growth; type: cell-based, human
# From the text: as §1
# [5] = target: human prostatic 5-reductase; set-up: method as in Njar et al, 1998; conditions: human prostatic microsomes; reported previously; ref Njar et al, 1998; cited from earlier work
# T2 sequence (P10275 whole entry T878A): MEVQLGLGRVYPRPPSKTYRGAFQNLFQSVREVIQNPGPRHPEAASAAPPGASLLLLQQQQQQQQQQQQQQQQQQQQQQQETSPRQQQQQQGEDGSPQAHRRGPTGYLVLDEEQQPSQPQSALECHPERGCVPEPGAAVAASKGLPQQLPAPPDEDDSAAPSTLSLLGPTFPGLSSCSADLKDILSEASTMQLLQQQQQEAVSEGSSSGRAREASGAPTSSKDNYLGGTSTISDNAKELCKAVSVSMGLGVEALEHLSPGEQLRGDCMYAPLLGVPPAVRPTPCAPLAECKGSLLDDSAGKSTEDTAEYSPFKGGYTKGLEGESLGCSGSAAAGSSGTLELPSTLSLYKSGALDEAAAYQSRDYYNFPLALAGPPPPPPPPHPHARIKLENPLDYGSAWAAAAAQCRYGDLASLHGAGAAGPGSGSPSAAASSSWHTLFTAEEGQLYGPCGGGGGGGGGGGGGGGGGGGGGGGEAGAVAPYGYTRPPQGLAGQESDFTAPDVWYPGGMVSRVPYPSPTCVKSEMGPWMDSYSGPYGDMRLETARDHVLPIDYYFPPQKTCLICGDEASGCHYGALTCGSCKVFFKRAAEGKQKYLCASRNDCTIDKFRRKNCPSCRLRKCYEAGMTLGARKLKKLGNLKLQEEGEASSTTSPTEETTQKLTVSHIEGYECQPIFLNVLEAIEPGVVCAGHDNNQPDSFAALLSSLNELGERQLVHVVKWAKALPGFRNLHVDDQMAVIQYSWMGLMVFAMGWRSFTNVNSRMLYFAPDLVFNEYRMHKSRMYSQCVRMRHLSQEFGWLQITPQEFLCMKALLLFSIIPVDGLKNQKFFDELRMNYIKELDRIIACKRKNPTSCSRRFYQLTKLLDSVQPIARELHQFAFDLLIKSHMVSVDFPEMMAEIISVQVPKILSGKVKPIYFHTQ
compound,measurement,setting,value
C[C@]12CCC(=O)C=C1CCC1C2CC[C@]2(C)C(n3ccnc3)=CCC12 (stereo partly drawn) [VN/108-1],Serum Testosterone,serum testosterone,0.081 ng/mL
same,Effect on LNCaP cell growth in absence of androgens,LNCaP cells [1],stimulated cell growth in absence of androgens
same,Serum PSA levels versus control,serum PSA,lowest levels of serum PSA; also recorded: significantly lower
same,IC50,[2],2.96 ± 0.78 nM
same,Concentration that completely blocked DHT stimulation,LNCaP cells [3],5.0 µM
same,Character at LNCaP AR,LNCaP androgen receptor,partial agonist of LNCaP AR
same,Serum DHT,serum DHT,122.1 pg/mL
same,Inhibition of LNCaP tumour growth (tumour volume),"LNCaP tumour xenografts; 50 mg kg-1 day-1, 4 weeks",9%
same,Effect on tumour growth or tumour weights,"LNCaP tumour xenografts; 50 mg kg-1 day-1, 28 days",no significant effects on tumour growth or tumour weights
same,Concentration that completely inhibited the growth stimulatory effect of testosterone,"LNCaP cells [4]; 0.1 nM testosterone, 9 days",5 µM
same,Effect on growth-stimulating effects of androgens,"LNCaP cells [4]; wild-type LNCaP cells, testosterone or DHT",blocked the growth-stimulating effects of androgens
same,IC50,[5],142 nM

# Source: paper PMC2362906, “Effects of new 17α-hydroxylase/C17,20-lyase inhibitors on LNCaP prostate cancer cell growth in vitro and in vivo” (British Journal of Cancer, 1999)
